For 29 molecules, IC50 results are on record in US10457655B2, “Compounds and compositions for inhibition of FASN” (FORMA Therapeutics, Inc., priority 2013, dated 2019).

Usually IC50 stands for the concentration that inhibits the measured activity by half. A higher IC50 goes with weaker potency in that assay.

A value given as a limit tells only on which side of the number the result lay.

FASN enzyme, sequence (P49327 whole entry): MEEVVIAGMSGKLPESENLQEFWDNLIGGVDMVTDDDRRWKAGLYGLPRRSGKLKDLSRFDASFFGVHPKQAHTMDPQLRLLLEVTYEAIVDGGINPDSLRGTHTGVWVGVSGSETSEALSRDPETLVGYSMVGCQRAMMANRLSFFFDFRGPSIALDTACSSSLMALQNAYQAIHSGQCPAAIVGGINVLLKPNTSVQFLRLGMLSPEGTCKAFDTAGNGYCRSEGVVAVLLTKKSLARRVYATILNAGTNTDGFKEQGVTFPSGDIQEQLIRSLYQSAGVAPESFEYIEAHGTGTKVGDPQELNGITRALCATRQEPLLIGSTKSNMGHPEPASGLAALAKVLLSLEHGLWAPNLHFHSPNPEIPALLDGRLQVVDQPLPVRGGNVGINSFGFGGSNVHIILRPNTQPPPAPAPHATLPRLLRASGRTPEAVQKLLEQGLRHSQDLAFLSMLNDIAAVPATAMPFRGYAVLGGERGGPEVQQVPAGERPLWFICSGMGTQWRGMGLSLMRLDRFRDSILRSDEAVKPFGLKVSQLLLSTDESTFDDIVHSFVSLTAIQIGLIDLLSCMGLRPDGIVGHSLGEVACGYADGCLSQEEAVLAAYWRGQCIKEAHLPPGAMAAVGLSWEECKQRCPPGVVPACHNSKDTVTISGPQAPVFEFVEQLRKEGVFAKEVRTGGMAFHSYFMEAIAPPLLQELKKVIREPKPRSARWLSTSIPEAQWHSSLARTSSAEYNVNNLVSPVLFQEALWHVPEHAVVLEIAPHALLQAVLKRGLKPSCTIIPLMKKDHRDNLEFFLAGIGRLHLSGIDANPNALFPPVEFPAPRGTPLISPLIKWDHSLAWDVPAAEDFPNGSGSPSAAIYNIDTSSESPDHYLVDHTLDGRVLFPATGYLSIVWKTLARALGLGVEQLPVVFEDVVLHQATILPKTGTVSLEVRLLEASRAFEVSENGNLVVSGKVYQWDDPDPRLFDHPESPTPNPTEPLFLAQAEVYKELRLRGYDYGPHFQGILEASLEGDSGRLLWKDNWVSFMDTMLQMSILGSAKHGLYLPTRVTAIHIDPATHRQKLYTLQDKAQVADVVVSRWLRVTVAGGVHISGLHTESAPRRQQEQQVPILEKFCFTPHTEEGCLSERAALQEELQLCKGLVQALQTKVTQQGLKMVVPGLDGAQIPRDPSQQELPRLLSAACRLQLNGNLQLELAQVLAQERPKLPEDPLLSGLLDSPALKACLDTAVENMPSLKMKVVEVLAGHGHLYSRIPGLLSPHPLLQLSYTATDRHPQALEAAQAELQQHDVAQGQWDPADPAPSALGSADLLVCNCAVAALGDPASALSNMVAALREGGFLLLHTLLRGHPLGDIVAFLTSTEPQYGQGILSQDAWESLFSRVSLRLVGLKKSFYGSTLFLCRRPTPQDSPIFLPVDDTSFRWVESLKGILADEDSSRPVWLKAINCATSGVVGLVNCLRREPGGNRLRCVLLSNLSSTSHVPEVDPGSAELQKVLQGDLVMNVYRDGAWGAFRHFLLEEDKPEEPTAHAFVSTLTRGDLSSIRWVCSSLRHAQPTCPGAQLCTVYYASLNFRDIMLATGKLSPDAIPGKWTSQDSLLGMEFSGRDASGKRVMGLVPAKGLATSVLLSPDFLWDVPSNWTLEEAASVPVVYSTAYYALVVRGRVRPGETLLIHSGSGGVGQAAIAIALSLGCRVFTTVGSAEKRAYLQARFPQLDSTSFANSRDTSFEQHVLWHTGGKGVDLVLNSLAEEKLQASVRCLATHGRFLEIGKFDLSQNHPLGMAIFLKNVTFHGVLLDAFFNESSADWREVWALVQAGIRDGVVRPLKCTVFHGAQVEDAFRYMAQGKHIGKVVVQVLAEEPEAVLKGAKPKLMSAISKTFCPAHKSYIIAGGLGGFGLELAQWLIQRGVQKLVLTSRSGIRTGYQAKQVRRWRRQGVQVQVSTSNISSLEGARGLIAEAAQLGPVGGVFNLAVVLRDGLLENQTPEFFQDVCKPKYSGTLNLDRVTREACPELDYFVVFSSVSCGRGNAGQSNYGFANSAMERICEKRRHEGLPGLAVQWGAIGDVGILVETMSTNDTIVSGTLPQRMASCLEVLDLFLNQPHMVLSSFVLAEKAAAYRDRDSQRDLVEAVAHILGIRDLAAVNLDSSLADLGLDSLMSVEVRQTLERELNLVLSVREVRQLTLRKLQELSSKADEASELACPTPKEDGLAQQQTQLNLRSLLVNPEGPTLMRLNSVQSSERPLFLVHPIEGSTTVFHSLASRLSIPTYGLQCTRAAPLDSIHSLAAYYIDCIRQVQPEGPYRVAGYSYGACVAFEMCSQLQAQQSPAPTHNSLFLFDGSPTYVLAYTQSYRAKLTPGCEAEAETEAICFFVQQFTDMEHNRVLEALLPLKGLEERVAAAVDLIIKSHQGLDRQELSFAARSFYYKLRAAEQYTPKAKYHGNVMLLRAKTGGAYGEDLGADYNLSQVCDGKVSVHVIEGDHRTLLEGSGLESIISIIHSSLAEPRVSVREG

One test concerns the target FASN enzyme (Homo sapiens, UniProt P49327). The test is described as follows: Enzymatic Assay for FASN Inhibitors. It counts as biochemical.
Conditions: not given
The method in brief:
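40 nM FASN preincubated with compound 60 min at 25° C in HEPES pH 7.3 buffer with 0.04% Triton X-100. Then 20 μM acetyl-CoA, 60 μM malonyl-CoA and 100 μM NADPH added for 90 min, quenched with CPM thiol probe; fluorescence 360/530 nm, IC50 by four-parameter fit.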
Molecule `O=C(c1ccc(-c2nc3ccccn3c2Cl)cc1)N1CCN(C(=O)C2(O)CC2)CC1` yielded an IC50 of less than 0.5 µM.
Still for that read-out and setting: the figure for `O=C(Nc1cccc(-c2ccc(C(=O)N3CCN(C(=O)C4(O)CC4)CC3)cc2)c1)C1CC(F)(F)C1` [3,3-difluoro-N-(3-{4-[4-(1-hydroxycyclopropanecarbonyl)piperazine-1-carbonyl]phenyl}phenyl)cyclobutane-1-carboxamide] is less than 0.5 µM; for `Cn1ccc2cc(-c3ccc(C(=O)N4CCN(C(=O)C5(O)CC5)CC4)cn3)ccc21` it is less than 0.5 µM; for `Cc1nn(C)c2ccc(-c3ccc(C(=O)N4CCN(C(=O)C5(N)CCC5)CC4)c(F)c3)cc12` [1-{4-[4-(1,3-dimethyl-1H-indazol-5-yl)-2-fluorobenzoyl]piperazine-1-carbonyl}cyclobutan-1-amine] it is less than 0.5 µM.
The same measure, in the same setting: then `C[C@@H]1CN(C(=O)c2ccc(-c3ccc4c(c3)ncn4C)cc2)CCN1C(=O)C1(O)CC1` [1-[(2R)-2-methyl-4-[4-(1-methyl-1H-1,3-benzodiazol-5-yl)benzoyl]piperazine-1-carbonyl]cyclopropan-1-ol], with less than 0.5 µM; and `O=C(c1ccc(-c2ccc3nn(C4CC4)cc3c2)cc1)N1CCN(C(=O)C2(O)CC2)CC1` [1-{4-[4-(2-cyclopropyl-2H-indazol-5-yl)benzoyl]piperazine-1-carbonyl}cyclopropan-1-ol], with less than 0.5 µM.
The same measure, in the same setting: the figure for `O=C(c1ccc(-c2n[nH]c3c(F)cccc23)cc1F)N1CCN(C(=O)C2(O)CC2)CC1` [1-{4-[2-fluoro-4-(7-fluoro-1H-indazol-3-yl)benzoyl]piperazine-1-carbonyl}cyclopropan-1-ol] is less than 0.5 µM; for `O=C(c1ccc(N2CCc3c(F)cccc32)cc1)N1CCN(C(=O)C2(O)CC2)CC1` [1-{4-[4-(4-fluoro-2,3-dihydro-1H-indol-1-yl)benzoyl]piperazine-1-carbonyl}cyclopropan-1-ol] it is less than 0.5 µM.
For `O=C(c1ccc(-c2cccc(Cl)c2)cc1)N1CCN(C(=O)C2(O)CC2)CC1` [1-[(4-{[4-(3-chlorophenyl)phenyl]carbonyl}piperazin-1-yl)carbonyl]cyclopropan-1-ol], the IC50 is less than 0.5 µM.
Same read-out and setting: the figure for `O=C(c1ccc(-c2cccc(N3CCCS3(=O)=O)c2)cc1)N1CCN(C(=O)C2(O)CC2)CC1` [2-(3-{4-[4-(1-hydroxycyclopropanecarbonyl)piperazine-1-carbonyl]phenyl}phenyl)-1λ^6,2-thiazolidine-1,1-dione] is less than 0.5 µM; for `O=C(c1ccc(-c2cc(Cl)cc3[nH]c(=O)[nH]c23)cc1)N1CCN(C(=O)C2(O)CC2)CC1` [6-chloro-4-{4-[4-(1-hydroxycyclopropanecarbonyl)piperazine-1-carbonyl]phenyl}-2,3-dihydro-1H-1,3-benzodiazol-2-one] it is less than 0.5 µM.
The same measure, in the same setting: the figure for `NC1(C(=O)N2CCN(C(=O)c3ccc(-c4cc(Cl)ccc4F)cc3)CC2)CC1` [1-{4-[4-(5-chloro-2-fluorophenyl)benzoyl]piperazine-1-carbonyl}cyclopropan-1-amine] is less than 0.5 µM; for `N#Cc1ccc2oc(-c3ccc(C(=O)N4CCN(C(=O)C5(O)CC5)CC4)cc3)nc2c1` [2-[4-({4-[(1-hydroxycyclopropyl)carbonyl]piperazin-1-yl}carbonyl)phenyl]-1,3-benzoxazole-5-carbonitrile] it is less than 0.5 µM.
As for `O=C(c1ccc(-c2nc3ccc(F)cc3o2)c(Cl)c1)N1CCN(C(=O)C2(O)CC2)CC1` [1-{4-[3-chloro-4-(6-fluoro-1,3-benzoxazol-2-yl)benzoyl]piperazine-1-carbonyl}cyclopropan-1-ol], the IC50 is less than 0.5 µM.
`O=C(c1ccc(N2CCc3cccc(F)c32)cc1)N1CCN(C(=O)C2(O)CC2)CC1` [1-{4-[4-(7-fluoro-2,3-dihydro-1H-indol-1-yl)benzoyl]piperazine-1-carbonyl}cyclopropan-1-ol] yielded an IC50 of less than 0.5 µM.
Same read-out and setting: the figure for `NC1(C(=O)N2CCN(C(=O)c3ccc(-c4n[nH]c5c(F)cccc45)cc3F)CC2)CC1` is less than 0.5 µM; for `Cn1ccc2cc(-c3ccc(C(=O)N4CCN(C(=O)C5(O)CC5)CC4)cc3)ccc21` [1-[(4-{[4-(1-methyl-1H-indol-5-yl)phenyl]carbonyl}piperazin-1-yl)carbonyl]cyclopropan-1-ol] it is less than 0.5 µM.
Turning to `Cc1nn(C)c2ccc(-c3ccc(C(=O)N4CCN(C(=O)C5(N)CCC5)CC4)cc3)cc12` [1-{4-[4-(1,3-dimethyl-1H-indazol-5-yl)benzoyl]piperazine-1-carbonyl}cyclobutan-1-amine], the IC50 is less than 0.5 µM.
Same read-out and setting: the figure for `O=C(c1ccc(-c2cccc(Cl)c2Cl)cc1)N1CCN(C(=O)C2(O)CC2)CC1` [1-[(4-{[4-(2,3-dichlorophenyl)phenyl]carbonyl}piperazin-1-yl)carbonyl]cyclopropan-1-ol] is less than 0.5 µM; for `Cn1cnc2cc(-c3ccc(C(=O)N4CCN(C(=O)C5(N)CCC5)CC4)c(F)c3)ccc21` [1-{4-[2-fluoro-4-(1-methyl-1H-1,3-benzodiazol-5-yl)benzoyl]piperazine-1-carbonyl}cyclobutan-1-amine] it is less than 0.5 µM.
Same read-out and setting: the figure for `O=C(c1ccc(N2CCc3ccccc3CC2)cc1)N1CCN(C(=O)C2(O)CC2)CC1` [1-{4-[4-(2,3,4,5-tetrahydro-1H-3-benzazepin-3-yl)benzoyl]piperazine-1-carbonyl}cyclopropan-1-ol] is less than 0.5 µM.

The same test, now with this note: FASN enzymatic assay; Table 2-2.
The molecule `O=C(c1ccc(-c2ccc3nc(C(F)(F)F)cn3c2)cc1)N1CCN(C(=O)C2(O)CC2)CC1` [1-{[4-({4-[2-(trifluoromethyl)imidazo[1,2-a]pyridin-6-yl]phenyl}carbonyl)piperazin-1-yl]carbonyl}cyclopropan-1-ol] showed an IC50 of 0.5 to 5 µM.
`O=C(c1cnc(-c2cnc3ccccc3c2)cn1)N1CCN(C(=O)C2(O)CC2)CC1` [1-[(4-{[5-(quinolin-3-yl)pyrazin-2-yl]carbonyl}piperazin-1-yl)carbonyl]cyclopropan-1-ol] returned an IC50 of 0.5 to 5 µM.
Molecule `O=C(c1ccc(-c2ccnc3cc(C(F)(F)F)ccc23)cc1)N1CCN(C(=O)C2(O)CC2)CC1` [1-{[4-({4-[7-(trifluoromethyl)quinolin-4-yl]phenyl}carbonyl)piperazin-1-yl]carbonyl}cyclopropan-1-ol] came in with an IC50 of 0.5 to 5 µM.
Still for that read-out and setting: then `CNC(=O)c1ccc(F)c(-c2ccc(C(=O)N3CCN(C(=O)C4(O)CC4)CC3)cc2)c1` [4-fluoro-3-[4-({4-[(1-hydroxycyclopropyl)carbonyl]piperazin-1-yl}carbonyl)phenyl]-N-methylbenzamide], with 0.5 to 5 µM.
For the molecule `O=C(c1ccc(-c2ccn3ccnc3n2)cc1)N1CCN(C(=O)C2(O)CC2)CC1` [1-({4-[(4-{imidazo[1,2-a]pyrimidin-7-yl}phenyl)carbonyl]piperazin-1-yl}carbonyl)cyclopropan-1-ol], the IC50 was in the range of 0.5 to 5 µM.

The same test, now with this note: FASN enzymatic assay; Table 2-3.
As to `COC(C)(C)C(=O)N1CCN(C(=O)c2ccc(-c3ccccc3)cc2)CC1` [2-methoxy-2-methyl-1-{4-[(4-phenylphenyl)carbonyl]piperazin-1-yl}propan-1-one], the IC50 is not below 5 µM.
Molecule `CC(C)Oc1ccc(Cl)cc1-c1ccc(C(=O)N2CCN(C(=O)C3(O)CC3)CC2)cc1` [1-{[4-({4-[5-chloro-2-(propan-2-yloxy)phenyl]phenyl}carbonyl)piperazin-1-yl]carbonyl}cyclopropan-1-ol] came in with an IC50 not below 5 µM.
Take `COc1ccc(-c2ccc(C(=O)N3CCN(C(=O)C4(O)CC4)CC3)cc2)c(Cl)c1` [1-[(4-{[4-(2-chloro-4-methoxyphenyl)phenyl]carbonyl}piperazin-1-yl)carbonyl]cyclopropan-1-ol]: the IC50 is not below 5 µM.
